Reference: ChEMBL document CHEMBL3727355, “Chemokine receptor activity regulator” (2014)

What follows are compounds tested against T1, C-C chemokine receptor type 10 (Homo sapiens) (UniProt P46092) (assay: Antagonist activity against human CCR10 expressed in human KJMGER8 cells assessed as inhibition of human recombinant CTACK-induced increase in intracellular calcium level at 100 nmol/L pre-incubated for 30 mins before human recombinant CTACK stimulation for 5 mins by FLIPR assay).
T1 sequence (whole entry): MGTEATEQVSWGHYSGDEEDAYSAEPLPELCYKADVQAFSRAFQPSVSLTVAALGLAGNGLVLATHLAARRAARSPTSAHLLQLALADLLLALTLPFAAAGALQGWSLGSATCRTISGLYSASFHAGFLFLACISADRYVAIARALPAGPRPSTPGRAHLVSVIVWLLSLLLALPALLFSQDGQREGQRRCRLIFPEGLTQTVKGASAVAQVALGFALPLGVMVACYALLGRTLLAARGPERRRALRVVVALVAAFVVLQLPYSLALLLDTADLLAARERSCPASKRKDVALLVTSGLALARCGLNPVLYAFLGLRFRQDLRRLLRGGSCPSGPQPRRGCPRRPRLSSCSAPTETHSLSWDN
Type: functional, cell-based

Row | inhibition [%] | SMILES
1 | > 100 | CONS(=O)(=O)c1cnn2c(Nc3cc(Cl)ccc3Cl)c(C(=O)N3CCC(c4ccc(F)cc4)CC3)cnc12
2 | 92 | CCNC(=O)NS(=O)(=O)c1cnn2c(Nc3ccc(F)cc3C)c(C(=O)N3CCC4(CC3)OCc3ccccc34)cnc12
3 | 58.8 | CNCC(=O)NS(=O)(=O)c1cnn2c(Nc3ccc(F)cc3C)c(C(=O)N3CCC(c4ccccc4)CC3)cnc12
4 | > 100 | Cc1cc(F)ccc1Nc1c(C(=O)N2CCC(c3ccccc3)CC2)cnc2c(S(=O)(=O)NC(=O)CO)cnn12
5 | > 100 | Cc1ccc(Cl)c(Nc2c(C(=O)N3CCC(c4ccc(F)cc4)CC3)cnc3c(S(=O)(=O)NC(=O)NC4CC4(F)F)cnn23)c1 (centres undefined)
6 | > 100 | CCNC(=O)NS(=O)(=O)c1cnn2c(Nc3cc(F)ccc3Cl)c(C(=O)N3CCC(c4ccc(F)cc4)CC3)cnc12
7 | 98.3 | CCC(=O)NS(=O)(=O)c1cnn2c(Nc3ccc(C)cc3Cl)c(C(=O)N3CCC(c4ccc(F)cc4)CC3)cnc12
8 | 87.8 | CCNS(=O)(=O)c1cnn2c(Nc3cc(C)ccc3Cl)c(C(=O)N3CCC(c4ccc(F)cc4)CC3)cnc12
9 | > 100 | Cc1cc(Nc2c(C(=O)N3CCC(c4ccc(F)cc4)CC3)cnc3c(S(=O)(=O)NC(=O)C4CC4)cnn23)c(Cl)cc1F
10 | > 100 | CCN(CC)S(=O)(=O)c1cnn2c(Nc3ccc(F)cc3C)c(C(=O)N3CCC(c4ccccc4)CC3)cnc12
11 | > 100 | O=C(c1cnc2c(S(=O)(=O)Nc3nncs3)cnn2c1Nc1cc(Cl)ccc1Cl)N1CCC(c2ccc(F)cc2)CC1
12 | > 100 | Cc1ccc(F)c(Nc2c(C(=O)N3CCC(c4ccc(F)cc4)CC3)cnc3c(S(=O)(=O)NC(=O)NC4CC4)cnn23)c1
13 | 75.3 | Cc1ccc(Cl)c(Nc2c(C(=O)N3CCC4(CC3)OCc3ccccc34)cnc3c(S(=O)(=O)NC(=O)NCC(F)(F)F)cnn23)c1
14 | 72.6 | CCNC(=O)NS(=O)(=O)c1cnn2c(Nc3ccc(F)cc3C)c(C(=O)N3CCC(c4ccccc4)CC3)cnc12
15 | 24.3 | CCNC(=O)NS(=O)(=O)c1cnn2c(Nc3cc(C)ccc3Cl)c(C(=O)N3CC4(C3)CN(c3ccc(F)cc3)C4)cnc12
16 | > 100 | CCC(=O)NS(=O)(=O)c1cnn2c(Nc3cc(C)ccc3F)c(C(=O)N3CCC4(CC3)OCc3ccccc34)cnc12
17 | 98.9 | O=C(NS(=O)(=O)c1cnn2c(Nc3ccccc3Cl)c(C(=O)N3CCC(c4ccccc4)CC3)cnc12)C1CC1
18 | > 100 | Cc1cc(F)ccc1Nc1c(C(=O)N2CCC(c3ccc(F)cc3)CC2)cnc2c(S(=O)(=O)NCC(F)(F)F)cnn12
19 | 80.6 | O=C(NS(=O)(=O)c1cnn2c(Nc3ccccc3Cl)c(C(=O)N3CCC(c4ccc(F)cc4)CC3)cnc12)C1CC1
20 | 80.3 | CCNS(=O)(=O)c1cnn2c(Nc3cc(C)ccc3Cl)c(C(=O)N3CCC4(CC3)OCc3ccccc34)cnc12
21 | > 100 | CCC(=O)NS(=O)(=O)c1cnn2c(Nc3cc(C)ccc3Cl)c(C(=O)N3CCC4(CC3)OCc3ccccc34)cnc12
22 | 88.8 | Cc1cc(F)ccc1Nc1c(C(=O)N2CCC(c3ccccc3)CC2)cnc2c(S(=O)(=O)NS(C)(=O)=O)cnn12
23 | 90.2 | CCC(=O)NS(=O)(=O)c1cnn2c(Nc3cc(C)ccc3Cl)c(C(=O)N3CC4(C3)CN(c3ccc(F)cc3)C4)cnc12
24 | > 100 | CCNS(=O)(=O)c1cnn2c(Nc3ccc(F)cc3C)c(C(=O)N3CCC(c4ccccc4)CC3)cnc12
25 | 94.2 | COCC(=O)NS(=O)(=O)c1cnn2c(Nc3ccc(F)cc3C)c(C(=O)N3CCC(c4ccccc4)CC3)cnc12
26 | > 100 | Cc1ccc(Cl)c(Nc2c(C(=O)N3CCC(c4ccc(F)cc4)CC3)cnc3c(S(=O)(=O)NC(N)=O)cnn23)c1
27 | > 100 | Cc1ccc(F)c(Nc2c(C(=O)N3CCC4(CC3)OCc3ccccc34)cnc3c(S(=O)(=O)NC(=O)C4CC4)cnn23)c1
28 | > 100 | COC(=O)NS(=O)(=O)c1cnn2c(Nc3cc(C)ccc3C)c(C(=O)N3CCC(c4ccccc4)CC3)cnc12
29 | > 100 | CCNC(=O)NS(=O)(=O)c1cnn2c(Nc3cc(Cl)ccc3F)c(C(=O)N3CCC(c4ccc(F)cc4)CC3)cnc12
